Measured values: article PMC11024979 (ACS Omega, 2024)
Read-outs that look alike come from different tables or passages of the source.

What was measured:
[1] = molecular target: anti-cortisol (17) Fab fragment; experiment: Surface plasmon resonance; format: binding, murine; conditions: read-out: KD (SPR); determined in this work
[2] = molecular target: anti-cortisol (17) Fab fragment; experiment: Initial ligand screening by native MS; format: binding, murine; conditions: Fab 0.1 μM, ligand 100 nM to 10 μM
[3] = test system: anti-cortisol (17) Fab fragment; experiment: Native MS direct ligand titration, KD by one-site binding fit; design: species or system murine; conditions: native MS KD ratio
[4] = molecular target: anti-cortisol (17) Fab fragment; conditions: read-out: KD (SPR); determined in previous work ref 9; cited from earlier work

| Compound | Kd [1] | approximate KD range from initial ligand screening [2] | fold higher KD compared to corticosterone [3] | Kd [4] |
| --- | --- | --- | --- | --- |
| C[C@]12CCC(=O)C=C1CC[C@@H]1[C@@H]2CC[C@@]2(C)[C@H]1CC[C@]2(O)C(=O)CO [11-deoxycortisol] | 0.12 µM | submicromolar affinity | more than 4 fold |  |
| C[C@]12C[C@H](O)[C@H]3[C@@H](CCC4=CC(=O)CC[C@@]43C)[C@@H]1CC[C@@H]2C(=O)CO [corticosterone] |  | nanomolar range |  | 0.031 ± 0.002 µM |
| C[C@]12CCC(=O)C=C1CC[C@@H]1[C@@H]2[C@@H](O)C[C@@]2(C)[C@H]1CC[C@]2(O)C(=O)CO [cortisol] |  | nanomolar range |  | 0.007 ± 0.001 µM |
| C[C@]12C=CC(=O)C=C1CC[C@@H]1[C@@H]2[C@@H](O)C[C@@]2(C)[C@H]1CC[C@]2(O)C(=O)CO [prednisolone] |  | nanomolar range |  | 0.013 ± 0.001 µM |
| CC(=O)[C@H]1CC[C@H]2[C@@H]3CCC4=CC(=O)CC[C@]4(C)[C@H]3CC[C@]12C [progesterone] |  |  |  | 15 ± 3 µM |
| C[C@]12CC[C@H]3[C@@H](CCC4=CC(=O)CC[C@@]43C)[C@@H]1CC[C@@H]2O [testosterone] |  |  |  | 23 ± 4 µM |
